# Test results taken from paper PMC3753754, “Andrographis paniculata Extract and Andrographolide Modulate the Hepatic Drug Metabolism System and Plasma Tolbutamide Concentrations in Rats” (Evidence-based Complementary and Alternative Medicine : eCAM, 2013).
# Marks after values point to notes of the source that are not given here.
# Key:
# CYP2C6/11 = assay: Hepatic CYP2C6 and CYP2C11 protein expression in high-fat diet-induced obese mice; format: in vivo, C57BL/6 mice; details: 2 g/kg APE or 50 mg/kg AND daily for 5 days
# Experimental: Eleven-month-old high-fat diet-fed (45% of energy from fat; Research Diet Inc., New Brunswick, NJ) C57BL/6 mice were obtained from the National Health Research Institute (Miaoli, Taiwan). Control mice were orally administered 0.5% methyl cellulose (10 mL/kg). […] After the 5th daily dose, the mice were deprived of food overnight. On day 6, a 20 mg/kg oral dose of tolbutamide, as a solution in Cremophor EL/ethanol/water (30/10/60, v/v/v), was administered to each mouse. Thirty minutes later, a 1 g/kg dose of glucose, as a solution in water, was administered orally according to the method described by Zong et al.. Serial blood samples were collected up to 8 h after the glucose dose from each mouse. The animals were then killed by exsanguination and the livers collected.
# Aliquots of microsomal protein (10 μg) were electrophoresed in an SDS-polyacrylamide gel, and proteins were then transferred to polyvinylidene fluoride membranes. After blocking, membranes were hybridized with antibodies to CYP1A1, CYP1A2, CYP2C6, CYP2C11, CYP2D1, CYP2E1, CYP3A1, and CYP3A2.
# CYP3A = assay: Testosterone 6β-hydroxylation in liver microsomes of treated rats; format: in vivo; details: rat liver microsomes; oral 2 g/kg APE or 50 mg/kg AND daily for 5 days
# Experimental: (§1) Liver was homogenized (1 : 4, w/v) in an ice-cold potassium phosphate buffer (pH 7.4) containing 7.4 mM K2HPO4, 2.6 mM KH2PO4, 1.15% KCl, and 1 mM phenylmethylsulfonyl fluoride (PMSF). Tissue homogenates were centrifuged at 10,000 ×g for 30 min at 4°C. The resulting supernatant was then centrifuged at 105,000 ×g for 1 h at 4°C. The microsomes thus obtained were washed several times to get rid of possible tolbutamide contamination and this can avoid tolbutamide interference of CYP activity, and the microsomes were then suspended in potassium phosphate buffer (pH 7.7) containing 7.5 mM K2HPO4, 14.5 mM KH2PO4, and 1 mM EDTA. […] Metabolites of each CYP enzyme reaction were determined by LC/MS as reported previously. The contents of total CYP and cytochrome b5 were quantified by the method of Omura and Sato [29]. Enzyme activity is expressed as picomoles of metabolite formed per minute per milligram of protein. The NADPH-CYP reductase activity was measured as described by Phillips and Langdon with the use of cytochrome c as the substrate. The microsomal protein concentration was determined by using a Coomassie Plus protein assay kit (Pierce, Rockford, IL, USA).
# CYP4A = assay: Lauric acid 12-hydroxylation in liver microsomes of treated rats; format: in vivo; details: rat liver microsomes; oral 2 g/kg APE or 50 mg/kg AND daily for 5 days
# Experimental: as §1
# CYP1A2 = assay: Methoxyresorufin O-demethylation in liver microsomes of treated rats; format: in vivo; details: rat liver microsomes; oral 2 g/kg APE or 50 mg/kg AND daily for 5 days
# Experimental: as §1
# [1] = Plasma aminotransferases (AST, ALT) of treated rats; format: in vivo, Sprague-Dawley rats
# Experimental: All animals were killed by exsanguination via the abdominal aorta while under carbon dioxide (CO2/O2, 70%/30%) anesthesia. Heparin was used as the anticoagulant. Plasma was separated from the blood by centrifugation (1750 ×g) at 4°C for 20 min. The liver from each animal was excised, weighed, and stored at −80°C. This research has received ethical approval from the institutional animal ethics committee of China Medical University, Taichung, Taiwan.
# Plasma glucose was determined by use of enzymatic kits purchased from Audit Diagnostics Co. (Cork, Ireland). Plasma aspartate aminotransferase (AST) and alanine aminotransferase (ALT) activities were measured by using commercial kits purchased from Randox Laboratories (Antrim, UK).
# [2] = rats, oral 2 g/kg APE or 50 mg/kg AND daily for 5 days, mean ± SD, n = 5
compound,measurement,setting,value
"C=C1CC[C@@H]2[C@](C)(CO)[C@H](O)CC[C@@]2(C)[C@@H]1C/C=C1/C(=O)OC[C@H]1O [andrographolide, Andrographolide]",Hepatic expression of CYP2C6/11,CYP2C6/11,induced
same,Testosterone 6β-hydroxylase (3A),CYP3A,1195 ± 284^b pmol/min/mg protein
same,Lauric acid 12-hydroxylase (4A),CYP4A,214 ± 88 pmol/min/mg protein
same,Methoxyresorufin O-demethylase (1A2),CYP1A2,25.6 ± 7.2^b pmol/min/mg protein
same,Effect on rat liver function,"[1]; 2 g/kg APE and 50 mg/kg AND, plasma AST and ALT",no deleterious effect
same,"Plasma aminotransferases, ALT",[1]; [2],15.8 ± 8.2 U/L
same,"Plasma aminotransferases, AST",[1]; [2],27.7 ± 4.4 U/L
